Measurements reported in ChEMBL document CHEMBL3044739, “Synthesis and cytotoxicity of novel N-sulfonyl-1,2,3,4-tetrahydroisoquinoline thiosemicarbazone derivatives” (Med Chem Res, 2013).
≈ marks a conversion by molar mass, not a printed value.

Columns and labels:
Format in all cases: functional, cell-based
MOLT-3 = assay: Cytotoxicity against Homo sapiens (human) MOLT3 cells assessed as survival after 3 days by crystal violet staining; conditions: MOLT-3, 72 h
A549 = assay: Cytotoxicity against Homo sapiens (human) A549 cells assessed as survival after 3 days by crystal violet staining; conditions: A549, 72 h
HepG2 = assay: Cytotoxicity against Homo sapiens (human) HepG2 cells assessed as survival after 3 days by crystal violet staining; conditions: HepG2, 72 h
[1] = Cytotoxicity against Homo sapiens (human) HuCCa1 cells assessed as survival after 3 days by crystal violet staining; conditions: HuCC-A1, 72 h

SMILES	IC50 (MOLT-3) [µg/mL]	IC50 (A549) [µg/mL]	IC50 (HepG2) [µg/mL]	IC50 [1] [µg/mL]
NC(=S)N/N=C(/c1ccccc1)c1nccc2ccccc12	0.72 (≈ 2.35 µM)	30 (≈ 97.9 µM)	16 (≈ 52.2 µM)	35 (≈ 114 µM)
C/C(=N\NC(N)=S)C1c2ccccc2CCN1S(=O)(=O)c1cccc([N+](=O)[O-])c1 (centres undefined)	18.1 (≈ 41.7 µM)	> 50	38.5 (≈ 88.8 µM)	> 50
COc1ccc(S(=O)(=O)N2CCc3ccccc3C2/C(C)=N/NC(N)=S)cc1 (centres undefined)	15.6 (≈ 37.2 µM)	> 50	33.5 (≈ 80 µM)	> 50
C/C(=N\NC(N)=S)C1c2ccccc2CCN1S(=O)(=O)c1ccc([N+](=O)[O-])cc1 (centres undefined)	18.2 (≈ 42.1 µM)	> 50	32.3 (≈ 74.6 µM)	> 50
COc1ccc(S(=O)(=O)N2CCc3cc(OC)c(OC)cc3C2/C(C)=N/NC(N)=S)cc1 (centres undefined)	2.13 (≈ 4.45 µM)	> 50	10.5 (≈ 21.9 µM)	31 (≈ 64.8 µM)
C/C(=N\NC(N)=S)C1c2ccccc2CCN1S(=O)(=O)c1ccc(C)cc1 (centres undefined)	19 (≈ 47.2 µM)	> 50	46 (≈ 114 µM)	> 50
COc1cc2c(cc1OC)C(/C(C)=N/NC(N)=S)N(S(=O)(=O)c1ccc([N+](=O)[O-])cc1)CC2 (centres undefined)	42.3 (≈ 85.7 µM)	> 50	> 50	> 50
COc1cc2c(cc1OC)C(/C(C)=N/NC(N)=S)N(S(=O)(=O)c1ccc(C)cc1)CC2 (centres undefined)	> 50	> 50	> 50	> 50
COc1ccc(S(=O)(=O)N2CCc3ccccc3C2/C(=N/NC(N)=S)c2ccccc2)cc1 (centres undefined)	8.44 (≈ 17.6 µM)	> 50	> 50	> 50
Cc1ccc(S(=O)(=O)N2CCc3ccccc3C2/C(=N/NC(N)=S)c2ccccc2)cc1 (centres undefined)	7.85 (≈ 16.9 µM)	> 50	> 50	> 50
NC(=S)N/N=C(\c1ccccc1)C1c2ccccc2CCN1S(=O)(=O)c1ccc([N+](=O)[O-])cc1 (centres undefined)	11.3 (≈ 22.7 µM)	> 50	> 50	> 50
COc1cc2c(cc1OC)C(/C(=N/NC(N)=S)c1ccccc1)N(S(=O)(=O)c1ccc(Cl)cc1)CC2 (centres undefined)	5.03 (≈ 9.23 µM)	> 50	> 50	> 50
COc1ccc(S(=O)(=O)N2CCc3cc(OC)c(OC)cc3C2/C(=N/NC(N)=S)c2ccccc2)cc1 (centres undefined)	10.4 (≈ 19.3 µM)	> 50	> 50	> 50
COc1cc2c(cc1OC)C(C(=O)c1ccccc1)N(S(=O)(=O)c1ccc(C)cc1)CC2 (centres undefined)	> 50	> 50	> 50	> 50
COc1cc2c(cc1OC)C(/C(=N/NC(N)=S)c1ccccc1)N(S(=O)(=O)c1ccc([N+](=O)[O-])cc1)CC2 (centres undefined)	> 50	> 50	> 50	> 50
COc1cc2c(cc1OC)C(/C(=N/NC(N)=S)c1ccccc1)N(S(=O)(=O)c1ccc(C)cc1)CC2 (centres undefined)	8.45 (≈ 16.1 µM)	> 50	21.5 (≈ 41 µM)	> 50
COc1cccc2c1C(=O)c1c(O)c3c(c(O)c1C2=O)C[C@@](O)(C(=O)CO)C[C@@H]3O[C@H]1C[C@H](N)[C@H](O)[C@H](C)O1 [DOXORUBICIN]		0.38 (≈ 0.699 µM)	0.23 (≈ 0.423 µM)	0.35 (≈ 0.644 µM)
COc1cc([C@@H]2c3cc4c(cc3[C@@H](O[C@@H]3O[C@@H]5CO[C@@H](C)O[C@H]5[C@H](O)[C@H]3O)[C@H]3COC(=O)[C@H]23)OCO4)cc(OC)c1O [ETOPOSIDE]	0.024 (≈ 0.0408 µM)		16 (≈ 27.2 µM)	
